Assay results published in patent US5952366A, “Alkyl ether analogs of chlorins having an N-substituted imide ring” (Health Research, Inc., priority 1998, dated 1999).

Legend:
[1] = system: Radiation induced fibrosarcoma (RIF) tumors; test: In vivo tumor response (photodynamic therapy, RIF tumors in C3H mice); conditions: for Tumor Response (%): 705 nm, 135 J/cm^2, 24 h post injection
Protocol: Radiation induced fibrosarcoma (RIF) tumors, were implanted subcutanaceously into the axilla of 5-7 week old female C3H mice. When tumors grew to about 5 mm in diameter, the mice were injected with various doses of the photosensitizers. The mice (6 mice per group) were restrained in aluminum holders and each tumor illuminated with 135 J/cm^2 of light from a laser tuned at the longest wavelength absorption maximum of the photosensitizers at 705 nm. The percentage of short term control was recorded daily.
*Six mice/group (RIF tumor). 1.0 μmol/kg. 705 nm, 135J/cm^2 (24 h

[2] = human, in vivo; cited from earlier work
[3] = 1.0 μmol/kg, days 1-2, six mice/group

CCCCCCCOC(C)c1c(C)c2cc3nc(c4c5[nH]c(cc6nc(cc1[nH]2)C(C)=C6CC)c(C)c5C(=O)N(CCCCCC)C4=O)[C@@H](CCC(=O)OC)[C@@H]3C (stereo partly drawn) [R^1 = heptyl, R^2 = hexyl, heptyl ether analog of N-hexyl purpurin imide]
Tumor Response (%) ([1]; 0.25 μmol, day 7): 60%
Tumor Response (%) ([1]; 0.25 μmol, day 14): 20%
Tumor Response (%) ([1]; 0.25 μmol, day 21): 20%
Tumor Response (%) ([1]; 0.25 μmol, day 30): 20%
Tumor Response (%) ([1]; 0.25 μmol, day 90): 20%
Tumor Response (%) ([1]; 0.25 μmol, days 1-2): 100%
Tumor Response (%) ([1]; 1.0 μmol/kg, day 7): 100%
Tumor Response (%) ([1]; 1.0 μmol/kg, day 14): 100%
Tumor Response (%) ([1]; 1.0 μmol/kg, day 21): 100%
Tumor Response (%) ([1]; 1.0 μmol/kg, day 30): 100%
Tumor Response (%) ([1]; 1.0 μmol/kg, day 90): 83%
Tumor Response (%) [1, 3]: 100%
effectiveness in this series ([1]; dose of 1.0 μmol/kg): most effective

CCCCCCOC(C)c1c(C)c2cc3nc(c4c5[nH]c(cc6nc(cc1[nH]2)C(C)=C6CC)c(C)c5C(=O)N(CCC)C4=O)[C@@H](CCC(=O)OC)[C@@H]3C (stereo partly drawn) [R^1 = hexyl, R^2 = propyl]
Tumor Response (%) ([1]; 0.5 μmol, day 7): 66%
Tumor Response (%) ([1]; 0.5 μmol, day 14): 33%
Tumor Response (%) ([1]; 0.5 μmol, day 21): 17%
Tumor Response (%) ([1]; 0.5 μmol, day 30): 17%
Tumor Response (%) ([1]; 0.5 μmol, day 90): 17%
Tumor Response (%) ([1]; 0.5 μmol, days 1-2): 100%
Tumor Response (%) ([1]; 1.0 μmol/kg, day 7): 83%
Tumor Response (%) ([1]; 1.0 μmol/kg, day 14): 83%
Tumor Response (%) ([1]; 1.0 μmol/kg, day 21): 50%
Tumor Response (%) ([1]; 1.0 μmol/kg, day 30): 33%
Tumor Response (%) ([1]; 1.0 μmol/kg, day 90): 33%
Tumor Response (%) [1, 3]: 100%

CCCOC(C)c1c(C)c2cc3nc(c4c5[nH]c(cc6nc(cc1[nH]2)C(C)=C6CC)c(C)c5C(=O)N(CCC)C4=O)[C@@H](CCC(=O)OC)[C@@H]3C (stereo partly drawn) [R^1 = propyl, R^2 = propyl]
Tumor Response (%) ([1]; 1.0 μmol/kg, day 7): 33%
Tumor Response (%) ([1]; 1.0 μmol/kg, day 14): 17%
Tumor Response (%) [1, 3]: 100%

Photofrin
normal tissue clearance [2]: lacks rapid normal tissue clearance
skin photosensitization [2]: photosensitizes the skin
